Reference: PubChem BioAssay AID2060619 (Molecular Pharmacology Branch, DTP, NCI, 2025)

System: 323965-272-R-J2-PDC complex spheroid viability
Assay: Anticancer human tumor 323965-272-R-J2-PDC patient-derived pancreatic carcinoma cell line growth inhibition [CLK]
Details: for IC50: curve of first compound; for viability, T/C: stronger effect = lower value
How it was run: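 Patient-derived tumor cells grown as complex spheroids with HUVEC endothelial cells and mesenchymal stem cells, treated with drug combinations. Concentrations descend in half-log steps from near clinical Cmax, or from 10 microM if Cmax unknown.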

[1] = second compound 0.0316 µM, first compound 0.0316 µM
[2] = second compound 0.0316 µM, first compound 0.1 µM
[3] = second compound 0.0316 µM, first compound 0.316 µM
[4] = second compound 0.0316 µM, first compound 1 µM
[5] = second compound 0.0316 µM, first compound 3.16 µM
[6] = second compound 0.0316 µM, first compound 10 µM
[7] = second compound 0.1 µM, first compound 0.0316 µM
[8] = second compound 0.1 µM, first compound 0.1 µM
[9] = second compound 0.1 µM, first compound 0.316 µM
[10] = second compound 0.1 µM, first compound 1 µM
[11] = second compound 0.1 µM, first compound 3.16 µM
[12] = second compound 0.1 µM, first compound 10 µM
[13] = second compound 0.316 µM, first compound 0.0316 µM
[14] = second compound 0.316 µM, first compound 0.1 µM
[15] = second compound 0.316 µM, first compound 0.316 µM
[16] = second compound 0.316 µM, first compound 1 µM
[17] = second compound 0.316 µM, first compound 3.16 µM
[18] = second compound 0.316 µM, first compound 10 µM
[19] = second compound 1 µM, first compound 0.0316 µM
[20] = second compound 1 µM, first compound 0.1 µM
[21] = second compound 1 µM, first compound 0.316 µM
[22] = second compound 1 µM, first compound 1 µM
[23] = second compound 1 µM, first compound 3.16 µM
[24] = second compound 1 µM, first compound 10 µM
[25] = second compound 3.16 µM, first compound 0.0316 µM
[26] = second compound 3.16 µM, first compound 0.1 µM
[27] = second compound 3.16 µM, first compound 0.316 µM
[28] = second compound 3.16 µM, first compound 1 µM
[29] = second compound 3.16 µM, first compound 3.16 µM
[30] = second compound 3.16 µM, first compound 10 µM
[31] = second compound 10 µM, first compound 0.0316 µM
[32] = second compound 10 µM, first compound 0.1 µM
[33] = second compound 10 µM, first compound 0.316 µM
[34] = second compound 10 µM, first compound 1 µM
[35] = second compound 10 µM, first compound 3.16 µM
[36] = second compound 10 µM, first compound 10 µM
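Also: spheroids exposed to agents for seven days before readout.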
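For viability, T/C in this document: percent of DMSO vehicle control wells so 100% = untreated growth.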

CC(C)CC(NC(=O)C(Cc1ccccc1)NC(=O)c1cnccn1)B(O)O (stereo unspecified) + CN1CCN(c2cc(C(=O)Nc3cc4cc(-c5cnn(C)c5)ccc4cn3)ccn2)CC1
IC50 (second compound 0.0316 µM): 4.13 nM | IC50 (second compound 0.1 µM): 4.13 nM | IC50 (second compound 0.316 µM): < 0.949 nM | IC50 (second compound 1 µM): < 0.949 nM | IC50 (second compound 3.16 µM): < 0.949 nM | IC50 (second compound 10 µM): < 0.949 nM | viability, T/C (second compound 0.0316 µM, first compound 0.000949 µM): 102% | viability, T/C (second compound 0.0316 µM, first compound 0.003 µM): 67.1% | viability, T/C (second compound 0.0316 µM, first compound 0.00949 µM): 5.27% | viability, T/C (second compound 0.0316 µM, first compound 0.03 µM): 0.67% | viability, T/C (second compound 0.0316 µM, first compound 0.0949 µM): 0.27% | viability, T/C (second compound 0.0316 µM, first compound 0.3 µM): 0.2% | viability, T/C (second compound 0.1 µM, first compound 0.000949 µM): 70.2% | viability, T/C (second compound 0.1 µM, first compound 0.003 µM): 67.7% | viability, T/C (second compound 0.1 µM, first compound 0.00949 µM): 4.08% | viability, T/C (second compound 0.1 µM, first compound 0.03 µM): 0.54% | viability, T/C (second compound 0.1 µM, first compound 0.0949 µM): 0.24% | viability, T/C (second compound 0.1 µM, first compound 0.3 µM): 0.21% | viability, T/C (second compound 0.316 µM, first compound 0.000949 µM): 27.6% | viability, T/C (second compound 0.316 µM, first compound 0.003 µM): 27.3% | viability, T/C (second compound 0.316 µM, first compound 0.00949 µM): 2.6% | viability, T/C (second compound 0.316 µM, first compound 0.03 µM): 0.27% | viability, T/C (second compound 0.316 µM, first compound 0.0949 µM): 0.18% | viability, T/C (second compound 0.316 µM, first compound 0.3 µM): 0.3% | viability, T/C (second compound 1 µM, first compound 0.000949 µM): 5.63% | viability, T/C (second compound 1 µM, first compound 0.003 µM): 1.53% | viability, T/C (second compound 1 µM, first compound 0.00949 µM): 0.21% | viability, T/C (second compound 1 µM, first compound 0.03 µM): 0.19% | viability, T/C (second compound 1 µM, first compound 0.0949 µM): 0.2% | viability, T/C (second compound 1 µM, first compound 0.3 µM): 1.89% | viability, T/C (second compound 3.16 µM, first compound 0.000949 µM): 5.74% | viability, T/C (second compound 3.16 µM, first compound 0.003 µM): 2.25% | viability, T/C (second compound 3.16 µM, first compound 0.00949 µM): 1.98% | viability, T/C (second compound 3.16 µM, first compound 0.03 µM): 0.31% | viability, T/C (second compound 3.16 µM, first compound 0.0949 µM): 0.19% | viability, T/C (second compound 3.16 µM, first compound 0.3 µM): 2.14% | viability, T/C (second compound 10 µM, first compound 0.000949 µM): 4.58% | viability, T/C (second compound 10 µM, first compound 0.003 µM): 2.17% | viability, T/C (second compound 10 µM, first compound 0.00949 µM): 0.45% | viability, T/C (second compound 10 µM, first compound 0.03 µM): 0.32% | viability, T/C (second compound 10 µM, first compound 0.0949 µM): 5.38% | viability, T/C (second compound 10 µM, first compound 0.3 µM): 2.98%

CC1COCCN1c1cc(C2(S(C)(=N)=O)CC2)nc(-c2ccnc3[nH]ccc23)n1 (stereo unspecified) + CN1CCN(c2cc(C(=O)Nc3cc4cc(-c5cnn(C)c5)ccc4cn3)ccn2)CC1
IC50 (second compound 0.0316 µM): 1820 nM | IC50 (second compound 0.1 µM): 701 nM | IC50 (second compound 0.316 µM): < 31.6 nM | IC50 (second compound 1 µM): < 31.6 nM | IC50 (second compound 3.16 µM): < 31.6 nM | IC50 (second compound 10 µM): < 31.6 nM | viability, T/C [1]: 98.2% | viability, T/C [2]: 103% | viability, T/C [3]: 79.5% | viability, T/C [4]: 65.8% | viability, T/C [5]: 36.7% | viability, T/C [6]: 25.6% | viability, T/C [7]: 66.9% | viability, T/C [8]: 77.2% | viability, T/C [9]: 67% | viability, T/C [10]: 41.8% | viability, T/C [11]: 31% | viability, T/C [12]: 23.6% | viability, T/C [13]: 24.6% | viability, T/C [14]: 29.2% | viability, T/C [15]: 22.1% | viability, T/C [16]: 21.4% | viability, T/C [17]: 17.4% | viability, T/C [18]: 15.1% | viability, T/C [19]: 3.95% | viability, T/C [20]: 3.37% | viability, T/C [21]: 3.9% | viability, T/C [22]: 3.84% | viability, T/C [23]: 2.35% | viability, T/C [24]: 2.79% | viability, T/C [25]: 4.84% | viability, T/C [26]: 4.43% | viability, T/C [27]: 4.15% | viability, T/C [28]: 3.73% | viability, T/C [29]: 3.53% | viability, T/C [30]: 4.26% | viability, T/C [31]: 4.2% | viability, T/C [32]: 3.8% | viability, T/C [33]: 4.37% | viability, T/C [34]: 3.26% | viability, T/C [35]: 4.39% | viability, T/C [36]: 2.79%

O=C(c1cc(Cc2n[nH]c(=O)c3ccccc23)ccc1F)N1CCN(C(=O)C2CC2)CC1 + CN1CCN(c2cc(C(=O)Nc3cc4cc(-c5cnn(C)c5)ccc4cn3)ccn2)CC1
IC50 (second compound 0.0316 µM): > 10000 nM | IC50 (second compound 0.1 µM): > 10000 nM | IC50 (second compound 0.316 µM): < 31.6 nM | IC50 (second compound 1 µM): < 31.6 nM | IC50 (second compound 3.16 µM): < 31.6 nM | IC50 (second compound 10 µM): < 31.6 nM | viability, T/C [1]: 91.1% | viability, T/C [2]: 93.4% | viability, T/C [3]: 87.4% | viability, T/C [4]: 102% | viability, T/C [5]: 93.5% | viability, T/C [6]: 80.2% | viability, T/C [7]: 70.6% | viability, T/C [8]: 81.2% | viability, T/C [9]: 68.7% | viability, T/C [10]: 64.8% | viability, T/C [11]: 65.6% | viability, T/C [12]: 56.2% | viability, T/C [13]: 23.2% | viability, T/C [14]: 26.9% | viability, T/C [15]: 22.6% | viability, T/C [16]: 26.6% | viability, T/C [17]: 24.9% | viability, T/C [18]: 26.9% | viability, T/C [19]: 4.07% | viability, T/C [20]: 7.03% | viability, T/C [21]: 3.28% | viability, T/C [22]: 3.68% | viability, T/C [23]: 3.67% | viability, T/C [24]: 3.82% | viability, T/C [25]: 5.15% | viability, T/C [26]: 4.92% | viability, T/C [27]: 4.78% | viability, T/C [28]: 4.57% | viability, T/C [29]: 5.09% | viability, T/C [30]: 7.05% | viability, T/C [31]: 4.14% | viability, T/C [32]: 5.28% | viability, T/C [33]: 5.97% | viability, T/C [34]: 4.83% | viability, T/C [35]: 4.72% | viability, T/C [36]: 6.29%
